Data reported in ChEMBL document CHEMBL3351476, “The discovery of I-BET726 (GSK1324726A), a potent tetrahydroquinoline ApoA1 up-regulator and selective BET bromodomain inhibitor” (J Med Chem, 2014).

What was measured:
[1] = molecular target: T1, Bromodomain-containing protein 2 (Homo sapiens, UniProt P25440); assay: Displacement of biotinylated tetra-acetylated histone H4 from His6-tagged BRD2 (1 to 473 aa) (unknown origin) after 1 hr by TR-FRET assay
[2] = molecular target: T2, Bromodomain-containing protein 3 (Homo sapiens, UniProt Q15059); assay: Displacement of biotinylated tetra-acetylated histone H4 from His6-tagged BRD3 (1 to 475 aa) (unknown origin) after 1 hr by TR-FRET assay
HepG2 = assay: Upregulation of ApoA1 in human HepG2 cells after 16 hrs by luciferase reporter assay relative to control; format: functional
PBMC = assay: Inhibition of LPS-induced IL6 production in human PBMC after 18 to 24 hrs by immunoassay; format: functional, cell-based
Hepatocyte [3] = assay: Clearance in human hepatocytes assessed per gram of tissue at 1 uM by LC-MS/MS analysis; format: ADME, cell-based
Hepatocyte [4] = assay: Clearance in rat hepatocytes assessed per gram of tissue at 1 uM by LC-MS/MS analysis; format: ADME, cell-based
[5] = Clearance in dog hepatocytes assessed per gram of tissue at 1 uM by LC-MS/MS analysis; format: ADME, cell-based, Canis lupus familiaris, Hepatocyte
[6] = Clearance in Cynomolgus monkey hepatocytes assessed per gram of tissue at 1 uM by LC-MS/MS analysis; format: ADME, cell-based, Macaca fascicularis, Hepatocyte
Cytochrome P450 1A2 = Cytochrome P450 1A2 (Homo sapiens, UniProt P05177); assay: Inhibition of CYP1A2 (unknown origin) expressed in Escherichia coli bactosomes using ethoxyresorufin as substrate after 10 mins by fluorescence assay; format: ADME
Cytochrome P450 2C19 = Cytochrome P450 2C19 (Homo sapiens, UniProt P33261); assay: Inhibition of CYP2C19 (unknown origin) expressed in Escherichia coli bactosomes using 3-butyryl-7-methoxycoumarin as substrate after 10 mins by fluorescence assay; format: ADME
[7] = molecular target: T1, Bromodomain-containing protein 2; assay: Binding affinity to His6-tagged BRD2 (1 to 473 aa) (unknown origin) by SPR method
[8] = molecular target: ATPase family AAA domain-containing protein 2 (Homo sapiens, UniProt Q6PL18); assay: Inhibition of human ATAD2 by BROMOscan assay
[9] = molecular target: Bromodomain adjacent to zinc finger domain protein 2A (Homo sapiens, UniProt Q9UIF9); assay: Inhibition of human BAZ2A by BROMOscan assay
[10] = molecular target: T1, Bromodomain-containing protein 2; assay: Inhibition of human BRD2 bromodomain 1 by BROMOscan assay
[11] = molecular target: T2, Bromodomain-containing protein 3; assay: Inhibition of human BRD3 bromodomain 2 by BROMOscan assay
[12] = molecular target: Bromodomain-containing protein 9 (Homo sapiens, UniProt Q9H8M2); assay: Inhibition of human BRD9 by BROMOscan assay
[13] = molecular target: T3, Bromodomain testis-specific protein (Homo sapiens, UniProt Q58F21); assay: Inhibition of human BRDT bromodomain 2 by BROMOscan assay
Peregrin = Peregrin (Homo sapiens, UniProt P55201); assay: Inhibition of human BRPF1 by BROMOscan assay
[14] = molecular target: Bromodomain and PHD finger-containing protein 3 (Homo sapiens, UniProt Q9ULD4); assay: Inhibition of human BRPF3 by BROMOscan assay
[15] = molecular target: Chromatin remodeling regulator CECR2 (Homo sapiens, UniProt Q9BXF3); assay: Inhibition of human CECR2 by BROMOscan assay
CREB-binding protein = CREB-binding protein (Homo sapiens, UniProt Q92793); assay: Inhibition of human CREBBP by BROMOscan assay
Protein polybromo-1 [16] = molecular target: T4, Protein polybromo-1 (Homo sapiens, UniProt Q86U86); assay: Inhibition of human PBRM1 bromodomain 1 by BROMOscan assay
Protein polybromo-1 [17] = molecular target: T4, Protein polybromo-1; assay: Inhibition of human PBRM1 bromodomain 5 by BROMOscan assay
[18] = molecular target: Histone acetyltransferase KAT2B (Homo sapiens, UniProt Q92831); assay: Inhibition of human PCAF by BROMOscan assay
[19] = molecular target: SWI/SNF-related matrix-associated actin-dependent regulator of chromatin subfamily A member 2 (Homo sapiens, UniProt P51531); assay: Inhibition of human SMARCA2 by BROMOscan assay
[20] = molecular target: Transcription initiation factor TFIID subunit 1-like (Homo sapiens, UniProt Q8IZX4); assay: Inhibition of human TAF1L by BROMOscan assay
[21] = molecular target: Transcription intermediary factor 1-alpha (Homo sapiens, UniProt O15164); assay: Inhibition of human TIF1alpha PHD/bromodomain by BROMOscan assay
[22] = molecular target: E3 ubiquitin-protein ligase TRIM33 (Homo sapiens, UniProt Q9UPN9); assay: Inhibition of human TIF1gamma PHD/bromodomain by BROMOscan assay
[23] = molecular target: Bromodomain and WD repeat-containing protein 1 (Homo sapiens, UniProt Q9NSI6); assay: Inhibition of human WDR9 bromodomain 2 by BROMOscan assay
[24] = molecular target: Bromodomain-containing protein 1 (Homo sapiens, UniProt O95696); assay: Inhibition of human BRD1 by BROMOscan assay
[25] = Permeability of the compound by PAMPA; format: ADME; details: read-out: permeability
[26] = Fraction unbound in mouse blood by rapid equilibrium dialysis method; format: ADME, tissue-based
[27] = Fraction unbound in rat blood by rapid equilibrium dialysis method; format: ADME, tissue-based
[28] = Fraction unbound in human blood by rapid equilibrium dialysis method; format: ADME, tissue-based
[29] = Blood clearance in Balb/c mouse at 10 mg/kg, iv as bolus dose; format: ADME, organism-based; parameters: dose 10 mg/kg, route intravenous; details: whole blood
[30] = Volume of distribution at steady state in Balb/c mouse at 10 mg/kg, iv as bolus dose; format: ADME, organism-based; parameters: dose 10 mg/kg, route intravenous; details: in vivo, read-out: Vdss
[31] = AUC (0 to t) in Balb/c mouse at 3 mg/kg, po; format: ADME, organism-based; parameters: dose 3 mg/kg, route oral; details: plasma
[32] = Oral bioavailability in Balb/c mouse at 3 mg/kg; format: ADME, organism-based; details: in vivo
[33] = Blood clearance in rat at 1 mg/kg, iv as infusion and 3 mg/kg, po; format: ADME, organism-based; details: whole blood
[34] = Terminal half life in rat at 1 mg/kg, iv as infusion; format: ADME, organism-based; parameters: dose 1 mg/kg, route intravenous; details: in vivo, read-out: beta t1/2
[35] = AUC (0 to t) in rat at 3 mg/kg, po; format: ADME, organism-based; parameters: dose 3 mg/kg, route oral; details: plasma
[36] = Oral bioavailability in rat at 3 mg/kg; format: ADME, organism-based; details: in vivo
[37] = Terminal half life in beagle dog at 1 mg/kg, iv as infusion; format: ADME, organism-based, Canis lupus familiaris; parameters: dose 1 mg/kg, route intravenous; details: in vivo, read-out: beta t1/2 (converted)
[38] = AUC (0 to t) in beagle dog at 3 mg/kg, po; format: ADME, organism-based, Canis lupus familiaris; parameters: dose 3 mg/kg, route oral; details: plasma
[39] = Oral bioavailability in beagle dog at 3 mg/kg; format: ADME, organism-based, Canis lupus familiaris; details: in vivo
[40] = Blood clearance in Cynomolgus monkey at 1 mg/kg, iv as infusion and 3 mg/kg, po; format: ADME, organism-based, Macaca fascicularis; details: whole blood
[41] = Volume of distribution at steady state in Cynomolgus monkey at 1 mg/kg, iv as infusion and 3 mg/kg, po; format: ADME, organism-based, Macaca fascicularis; details: in vivo, read-out: Vdss
[42] = Terminal half life in Cynomolgus monkey at 1 mg/kg, iv as infusion; format: ADME, organism-based, Macaca fascicularis; parameters: dose 1 mg/kg, route intravenous; details: in vivo, read-out: beta t1/2 (converted)
Mus musculus = assay: Antiinflammatory activity in septic shock Balb/c mouse model assessed as mouse survival at 10 mg/kg, iv as single dose post LPS challenge measured after 5 days post treatment relative to vehicle-treated control; format: functional; details: 120 h
[43] = molecular target: T3, Bromodomain testis-specific protein; assay: Inhibition of BRDT (unknown origin) by TR-FRET assay

T1 sequence (P25440 whole entry, the tested form may be a part): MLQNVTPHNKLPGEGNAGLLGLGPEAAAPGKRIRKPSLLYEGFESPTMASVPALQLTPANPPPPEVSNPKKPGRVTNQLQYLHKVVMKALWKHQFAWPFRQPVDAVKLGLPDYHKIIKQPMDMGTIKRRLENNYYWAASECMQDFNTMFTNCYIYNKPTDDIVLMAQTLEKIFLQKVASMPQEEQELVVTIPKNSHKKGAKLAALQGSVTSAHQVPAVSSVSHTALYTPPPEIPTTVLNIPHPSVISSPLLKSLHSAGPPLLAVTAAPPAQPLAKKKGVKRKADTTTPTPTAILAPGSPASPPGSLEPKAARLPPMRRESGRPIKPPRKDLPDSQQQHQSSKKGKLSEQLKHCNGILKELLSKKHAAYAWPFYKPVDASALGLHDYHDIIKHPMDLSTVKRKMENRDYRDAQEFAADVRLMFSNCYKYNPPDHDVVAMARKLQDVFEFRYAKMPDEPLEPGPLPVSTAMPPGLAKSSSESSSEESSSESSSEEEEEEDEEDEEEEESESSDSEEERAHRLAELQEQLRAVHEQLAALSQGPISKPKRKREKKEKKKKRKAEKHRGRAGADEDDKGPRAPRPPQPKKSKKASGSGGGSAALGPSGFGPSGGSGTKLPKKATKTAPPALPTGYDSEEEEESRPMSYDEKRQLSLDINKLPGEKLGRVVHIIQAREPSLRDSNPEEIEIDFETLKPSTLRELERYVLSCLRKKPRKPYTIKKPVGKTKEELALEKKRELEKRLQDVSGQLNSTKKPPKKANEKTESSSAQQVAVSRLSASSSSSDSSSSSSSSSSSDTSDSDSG
T4 sequence (Q86U86 whole entry): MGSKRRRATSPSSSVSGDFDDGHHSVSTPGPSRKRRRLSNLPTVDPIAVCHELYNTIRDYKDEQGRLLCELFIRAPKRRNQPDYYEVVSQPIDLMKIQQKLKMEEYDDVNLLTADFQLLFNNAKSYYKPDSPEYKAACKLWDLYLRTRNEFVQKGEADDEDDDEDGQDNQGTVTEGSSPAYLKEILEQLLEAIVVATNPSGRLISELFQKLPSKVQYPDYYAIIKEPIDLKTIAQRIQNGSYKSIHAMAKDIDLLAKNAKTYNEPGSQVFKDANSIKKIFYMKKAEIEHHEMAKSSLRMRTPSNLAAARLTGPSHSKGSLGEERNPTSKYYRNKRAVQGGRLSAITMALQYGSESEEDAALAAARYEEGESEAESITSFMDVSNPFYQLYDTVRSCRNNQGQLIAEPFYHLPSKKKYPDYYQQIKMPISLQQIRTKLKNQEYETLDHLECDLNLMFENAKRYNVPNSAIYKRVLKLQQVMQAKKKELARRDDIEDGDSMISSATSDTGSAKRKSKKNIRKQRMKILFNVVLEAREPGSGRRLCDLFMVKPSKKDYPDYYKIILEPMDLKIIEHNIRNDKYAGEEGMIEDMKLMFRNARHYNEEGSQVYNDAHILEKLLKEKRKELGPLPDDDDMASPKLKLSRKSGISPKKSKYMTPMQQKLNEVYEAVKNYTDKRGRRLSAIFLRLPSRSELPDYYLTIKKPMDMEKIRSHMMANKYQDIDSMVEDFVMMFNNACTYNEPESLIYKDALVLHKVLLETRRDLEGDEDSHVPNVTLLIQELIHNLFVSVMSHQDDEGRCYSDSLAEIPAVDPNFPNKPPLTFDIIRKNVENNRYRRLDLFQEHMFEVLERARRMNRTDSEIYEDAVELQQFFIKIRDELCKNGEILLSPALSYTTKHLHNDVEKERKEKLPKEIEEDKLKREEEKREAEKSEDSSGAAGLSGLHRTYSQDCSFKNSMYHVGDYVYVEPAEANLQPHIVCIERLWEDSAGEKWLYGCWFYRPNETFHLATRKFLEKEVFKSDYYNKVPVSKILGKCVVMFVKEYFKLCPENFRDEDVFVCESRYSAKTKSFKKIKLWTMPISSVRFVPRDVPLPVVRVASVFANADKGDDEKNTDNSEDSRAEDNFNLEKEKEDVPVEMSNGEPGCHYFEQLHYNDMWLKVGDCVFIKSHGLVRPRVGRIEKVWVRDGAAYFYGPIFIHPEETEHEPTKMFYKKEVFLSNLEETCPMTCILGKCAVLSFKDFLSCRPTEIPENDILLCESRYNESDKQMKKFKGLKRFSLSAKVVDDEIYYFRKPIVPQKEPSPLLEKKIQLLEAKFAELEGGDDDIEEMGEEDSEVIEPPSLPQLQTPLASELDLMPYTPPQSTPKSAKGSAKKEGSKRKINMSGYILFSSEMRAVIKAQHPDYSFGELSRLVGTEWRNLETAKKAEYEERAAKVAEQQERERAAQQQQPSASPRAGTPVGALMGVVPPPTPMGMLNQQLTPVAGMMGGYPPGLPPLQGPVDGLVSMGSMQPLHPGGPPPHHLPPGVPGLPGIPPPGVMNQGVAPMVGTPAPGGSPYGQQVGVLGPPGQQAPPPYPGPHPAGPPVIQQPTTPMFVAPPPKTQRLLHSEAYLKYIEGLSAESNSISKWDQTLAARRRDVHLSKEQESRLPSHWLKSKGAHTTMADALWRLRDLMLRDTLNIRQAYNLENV
T2 sequence (Q15059 whole entry, the tested form may be a part): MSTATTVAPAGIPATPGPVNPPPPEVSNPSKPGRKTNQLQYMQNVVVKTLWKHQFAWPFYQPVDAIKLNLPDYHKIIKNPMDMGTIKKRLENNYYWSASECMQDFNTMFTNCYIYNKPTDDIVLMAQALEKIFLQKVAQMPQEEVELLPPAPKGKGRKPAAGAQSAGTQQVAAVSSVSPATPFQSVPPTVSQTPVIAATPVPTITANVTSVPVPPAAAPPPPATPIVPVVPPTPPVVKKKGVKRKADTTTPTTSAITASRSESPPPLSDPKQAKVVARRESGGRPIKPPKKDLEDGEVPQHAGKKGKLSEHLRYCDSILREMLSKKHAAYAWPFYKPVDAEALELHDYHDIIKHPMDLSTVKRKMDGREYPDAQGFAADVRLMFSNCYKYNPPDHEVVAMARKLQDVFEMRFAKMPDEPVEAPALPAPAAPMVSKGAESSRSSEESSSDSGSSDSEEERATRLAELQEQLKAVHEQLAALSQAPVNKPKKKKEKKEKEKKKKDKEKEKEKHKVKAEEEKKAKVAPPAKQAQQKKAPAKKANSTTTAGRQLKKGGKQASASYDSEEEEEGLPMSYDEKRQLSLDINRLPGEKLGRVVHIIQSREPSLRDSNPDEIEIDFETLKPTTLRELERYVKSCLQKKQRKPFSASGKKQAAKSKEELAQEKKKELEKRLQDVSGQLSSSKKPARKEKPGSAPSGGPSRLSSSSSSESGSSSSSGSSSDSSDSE
Sequence of Transcription intermediary factor 1-alpha (O15164 whole entry): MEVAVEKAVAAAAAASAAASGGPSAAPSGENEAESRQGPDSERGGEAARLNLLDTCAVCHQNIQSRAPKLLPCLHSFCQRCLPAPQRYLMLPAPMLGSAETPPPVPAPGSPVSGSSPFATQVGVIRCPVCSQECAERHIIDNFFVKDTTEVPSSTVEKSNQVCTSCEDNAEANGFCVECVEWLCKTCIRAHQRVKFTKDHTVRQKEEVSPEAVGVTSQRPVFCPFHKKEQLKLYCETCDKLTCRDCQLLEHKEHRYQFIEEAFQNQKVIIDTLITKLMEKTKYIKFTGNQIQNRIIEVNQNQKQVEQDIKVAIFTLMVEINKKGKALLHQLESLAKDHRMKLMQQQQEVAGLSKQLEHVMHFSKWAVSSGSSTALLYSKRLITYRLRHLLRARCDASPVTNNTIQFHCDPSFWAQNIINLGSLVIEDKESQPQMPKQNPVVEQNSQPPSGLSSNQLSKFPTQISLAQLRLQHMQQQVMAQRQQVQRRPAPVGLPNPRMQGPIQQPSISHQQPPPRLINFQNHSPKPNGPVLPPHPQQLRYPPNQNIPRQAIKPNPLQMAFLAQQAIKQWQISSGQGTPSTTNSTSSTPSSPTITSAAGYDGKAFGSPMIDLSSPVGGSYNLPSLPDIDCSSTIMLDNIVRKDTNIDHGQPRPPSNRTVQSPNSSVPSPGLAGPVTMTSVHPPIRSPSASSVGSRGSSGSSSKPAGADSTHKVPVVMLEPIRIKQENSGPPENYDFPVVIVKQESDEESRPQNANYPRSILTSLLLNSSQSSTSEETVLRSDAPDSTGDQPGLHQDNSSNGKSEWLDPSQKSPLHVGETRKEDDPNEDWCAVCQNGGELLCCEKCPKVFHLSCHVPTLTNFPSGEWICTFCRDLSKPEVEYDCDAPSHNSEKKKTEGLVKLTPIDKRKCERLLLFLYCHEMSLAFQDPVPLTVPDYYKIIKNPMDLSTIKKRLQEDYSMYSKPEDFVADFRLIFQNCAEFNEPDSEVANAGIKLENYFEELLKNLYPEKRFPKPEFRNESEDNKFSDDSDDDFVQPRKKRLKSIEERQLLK
Sequence of Histone acetyltransferase KAT2B (Q92831 whole entry): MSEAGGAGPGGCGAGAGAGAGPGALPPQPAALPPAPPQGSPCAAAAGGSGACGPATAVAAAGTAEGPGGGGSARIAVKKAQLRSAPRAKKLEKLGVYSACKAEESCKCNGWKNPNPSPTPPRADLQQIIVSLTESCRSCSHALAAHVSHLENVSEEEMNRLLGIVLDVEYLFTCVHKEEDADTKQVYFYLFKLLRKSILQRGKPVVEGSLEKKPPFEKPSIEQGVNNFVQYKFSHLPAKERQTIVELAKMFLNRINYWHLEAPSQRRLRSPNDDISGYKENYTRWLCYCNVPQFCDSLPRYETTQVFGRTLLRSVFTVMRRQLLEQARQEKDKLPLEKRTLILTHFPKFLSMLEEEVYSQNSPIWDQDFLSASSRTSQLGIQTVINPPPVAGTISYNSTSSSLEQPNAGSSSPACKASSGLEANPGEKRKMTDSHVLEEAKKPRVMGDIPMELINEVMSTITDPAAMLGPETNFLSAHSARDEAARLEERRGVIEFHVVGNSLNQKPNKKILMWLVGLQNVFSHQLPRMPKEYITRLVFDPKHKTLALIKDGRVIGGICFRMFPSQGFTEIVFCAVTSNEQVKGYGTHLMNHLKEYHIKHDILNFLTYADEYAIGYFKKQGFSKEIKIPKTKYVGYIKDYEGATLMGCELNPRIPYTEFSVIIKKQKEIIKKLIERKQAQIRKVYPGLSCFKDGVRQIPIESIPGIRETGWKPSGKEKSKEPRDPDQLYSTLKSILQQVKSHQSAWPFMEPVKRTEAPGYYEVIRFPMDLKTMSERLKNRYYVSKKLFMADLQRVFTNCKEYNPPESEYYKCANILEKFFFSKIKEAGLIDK

CC(=O)N1c2ccc(-c3ccc(C(=O)O)cc3)cc2[C@H](Nc2ccc(Cl)cc2)C[C@@H]1C
IC50 [1]: 0.158 µM
IC50 [2]: 0.2 µM
pEC170 (HepG2): 8.1
IC50 (PBMC): 0.0501 µM
CLH (Hepatocyte [3]): < 0.85 mL/min/g
CLH (Hepatocyte [4]): < 0.85 mL/min/g
CLH [5]: < 1.7 mL/min/g
CLH [6]: < 0.85 mL/min/g
IC50 (Cytochrome P450 1A2): > 33 µM
IC50 (Cytochrome P450 2C19): 12 µM
Kd [7]: 0.025 µM
IC50 [8]: > 31.6 µM
IC50 [9]: > 31.6 µM
IC50 [10]: > 31.6 µM
IC50 [11]: 0.002 µM
IC50 [12]: > 31.6 µM
IC50 [13]: 31.6 µM
IC50 (Peregrin): > 0.00398 µM
IC50 [14]: > 0.001 µM
IC50 [15]: > 31.6 µM
IC50 (CREB-binding protein): 31.6 µM
IC50 (Protein polybromo-1 [16]): 0.631 µM
IC50 (Protein polybromo-1 [17]): > 31.6 µM
IC50 [18]: > 7.94 µM
IC50 [19]: > 31.6 µM
IC50 [20]: 31.6 µM
IC50 [21]: 15.8 µM
IC50 [22]: > 10 µM
IC50 [23]: 31.6 µM
IC50 [24]: > 20 µM
Papp [25]: 9.5 ×10⁻⁶ cm/s
fraction unbound [26]: 0.013
fraction unbound [27]: 0.009
fraction unbound [28]: 0.017
clearance [29]: 3.1 mL/min/kg
Vd [30]: 0.48 L/kg
AUC(0-t) [31]: 6030 ng·h/mL
bioavailability [32]: 45%
clearance [33]: 26 mL/min/kg
half-life [34]: > 8 h
AUC(0-t) [35]: 539 ng·h/mL
bioavailability [36]: 28%
half-life [37]: 1.8 h
AUC(0-t) [38]: 5900 ng·h/mL
bioavailability [39]: 80%
clearance [40]: 3 mL/min/kg
Vd [41]: 1 L/kg
half-life [42]: 2.7 h
survival at 10 mg/kg (Mus musculus): 56%
IC50 [43]: 0.0501 µM
